Patent publication US20250171460A1, “INDUCERS OF KLF2 AND METHODS OF USE THEREOF” (Riparian Pharmaceuticals, Inc., priority 2022, published 2025)

These compounds were tested on primary human endothelial cells expressing luciferase under the control of the KLF2 promoter (assay: KLF2 Induction Cell Based Bioassay (luciferase reporter)). Conditions: Bioactivity of stereoisomers: S isomer.
From the text: In endothelial cell culture media, a stock of the highest working concentration was made at no more than 1% DMSO vehicle. The working stock was then serially diluted 1:2 to make an 11-point concentration response curve. Included in the 96-well plate were 2 reference compounds with known potencies. A DMSO column was included in the 96-well plate at the highest percent vehicle of the working stocks. The 96-well cell culture plate of primary human endothelial cells expressing luciferase under the control of the KLF2 promoter was dosed with 200 μL per well of the dilution series as well as the DMSO control column. The assay plate was incubated at 37° C. for 24 hours. The supernatant was collected at 24 hours.
20 μL of the supernatant was then placed in a 384-well plate with optical duplicates. The corners of the plate received 20 μL of the Gaussia Luciferase Enzyme positive control, as well as 20 μL of the 50 μM Coelenterizine substrate. The plate read is then calibrated using the control, and read using a Molecular Devices SpectraMax iD5, providing luminescence in relative light units (RLU). The plate reader injected 20 μL of the 50 μM Coelenterizine substrate immediately before taking the RLU measurement for each well.
The sample signals were then normalized to the average signal of the DMSO column, as well as to the maximum signal of one of the reference compounds, as shown in the equations below: […]
The EC50 of each compound is then defined as when the concentration response curve passes 0.5.

With `C#CCCN1C(=O)c2oc3ccccc3c2OC[C@@]1(C)C(=O)NCc1ccccc1OC` [Example 138] the “Bioactivity Bucket, S” value was “inactive”.
For `COCCN1C(=O)c2oc3cc(C(=O)NC4(C)COC4)ccc3c2OC[C@@]1(C)C(=O)NCc1c(F)cccc1OC` [Example 135], the “Bioactivity Bucket, S” value was “inactive”.

Same assay, conditions: Homo sapiens, Endothelial cell, 24 h, KLF2 promoter luciferase, 24 hours, 11-point concentration response; read-out: Activity Range (EC50)

`COCCN1C(=O)c2oc3cc(C(=O)NC4(C)COC4)cnc3c2OCC1(C)C(=O)NCc1ccccc1OC` (centres unmarked) [Example 122] and `COCCN1C(=O)c2oc3cc(C(=O)NC4(C)COC4)ccc3c2OCC1(C)C(=O)NCc1c(Cl)cccc1OC` (centres unmarked) [Example 64] fall in the same range of EC50: 51 to 500 nM for the first, 51 to 500 nM for the second.

`COCCN1C(=O)c2oc3ccccc3c2OCC1(C)C(=O)NCc1c(OC)ccc(Cl)c1F` (centres unmarked) [Example 46] and `COCCN1C(=O)c2oc3ccccc3c2OCC1(C)C(=O)NCc1c(OC)ccc(F)c1F` (centres unmarked) [Example 21] fall in the same range of EC50: 501 to 5000 nM for the first, 501 to 5000 nM for the second.

`COc1cccc(F)c1CNC(=O)C1(C)COc2c(oc3ccc(Cl)cc23)C(=O)N1CC(=O)N(C)C` (racemic) [Example 106, 9-chloro-4-(2-(dimethylamino)-2-oxoethyl)-N-(2-fluoro-6-methoxybenzyl)-3-methyl-5-oxo-2,3,4,5-tetrahydrobenzofuro[2,3-f][1,4]oxazepine-3-carboxamide] and `COc1cccc(F)c1CNC(=O)C1(C)COc2c(oc3ccc(F)cc23)C(=O)N1CC(=O)N(C)C` (centres unmarked) [Example 112, 4-(2-(dimethylamino)-2-oxoethyl)-9-fluoro-N-(2-fluoro-6-methoxybenzyl)-3-methyl-5-oxo-2,3,4,5-tetrahydrobenzofuro[2,3-f][1,4]oxazepine-3-carboxamide] fall in the same range of EC50: 51 to 500 nM for the first, 51 to 500 nM for the second.

`COCCN1C(=O)c2oc3ccccc3c2OCC1(C)C(=O)NCc1c(OC)ccc2cnccc12` (centres unmarked) [Example 19] and `COCCN1C(=O)c2oc3ccccc3c2OCC1(C)C(=O)NCc1c(OC)ccc(F)c1Cl` (centres unmarked) [Example 17] fall in the same range of EC50: 501 to 5000 nM for the first, 501 to 5000 nM for the second.

`COCCN1C(=O)c2oc3ccccc3c2OCC1(C)C(=O)NCc1ccc(Cl)cc1OC` (centres unmarked) [Example 25] and `COCCN1C(=O)c2oc3ccccc3c2OCC1(C)C(=O)NCc1ccc(C)cc1OC` (centres unmarked) [Example 43] fall in the same range of EC50: 501 to 5000 nM for the first, 501 to 5000 nM for the second.

First: C=CCN1C(=O)c2oc3ccccc3c2OCC1(C)C(=O)NCc1ccccc1OC (centres unmarked) [Example 12]
Second: COc1ccccc1CNC(=O)C1(C)COc2c(oc3ccccc23)C(=O)N1CC(C)(C)OC (centres unmarked) [Example 3]
The EC50 of the first is higher: 501 to 5000 nM for the first, 51 to 500 nM for the second.

`COCCN1C(=O)c2oc3ccccc3c2OCC1(C)C(=O)NCc1c(F)cc(Cl)cc1OC` (centres unmarked) [Example 16] and `COCCN1C(=O)c2oc3ccccc3c2OCC1(C)C(=O)NCc1c(F)cc(F)cc1OC` (centres unmarked) [Example 22] fall in the same range of EC50: 501 to 5000 nM for the first, 501 to 5000 nM for the second.

Compared with `COc1ccc(F)cc1CNC(=O)[C@@]1(C)COc2c(oc3ccc(F)cc23)C(=O)N1Cc1nnn(CCO)n1` [Example 119], `COCCN1C(=O)c2oc3ccccc3c2OCC1(C)C(=O)NCc1ccc(F)cc1OC` (centres unmarked) [Example 39] is higher in EC50: 51 to 500 nM for the first, 501 to 5000 nM for the second.

`COCCN1C(=O)c2oc3cc(C(=O)NC4CCC4)ccc3c2OCC1(C)C(=O)NCc1c(Cl)cccc1OC` (centres unmarked) [Example 88] and `COCCN1C(=O)c2oc3cc(C(=O)NC4CCC4)ccc3c2OC[C@]1(C)C(=O)NCc1c(F)cccc1OC` [Example 94] cannot be ordered by EC50: ≤ 50 nM for the first, ≤ 50 nM for the second.

`[2H]C([2H])([2H])N(C(=O)CN1C(=O)c2oc3cc(-c4ncco4)ccc3c2OC[C@]1(C)C(=O)NCc1ncccc1OC)C([2H])([2H])[2H]` [Example 127] and `COc1cccnc1CNC(=O)[C@@]1(C)COc2c(oc3cc(-c4ncco4)ccc23)C(=O)N1CC(=O)N(C)C` [Example 125, (R)-4-(2-(dimethylamino)-2-oxoethyl)-N-((3-methoxypyridin-2-yl)methyl)-3-methyl-8-(oxazol-2-yl)-5-oxo-2,3,4,5-tetrahydrobenzofuro[2,3-f][1,4]oxazepine-3-carboxamide] cannot be ordered by EC50: ≤ 50 nM for the first, ≤ 50 nM for the second.

First: COCCN1C(=O)c2oc3cc(-c4cscn4)ccc3c2OCC1(C)C(=O)NCc1ccccc1OC (centres unmarked) [Example 99]
Second: COCCN1C(=O)c2oc3cc(C(=O)NC4CCC4)ccc3c2OC[C@]1(C)C(=O)NCc1ccccc1OC [Example 50, (R)—N8-cyclobutyl-N3-(2-methoxybenzyl)-4-(2-methoxyethyl)-3-methyl-5-oxo-2,3,4,5-tetrahydrobenzofuro[2,3-f][1,4]oxazepine-3,8-dicarboxamide]
The EC50 of the first is higher: 501 to 5000 nM for the first, 51 to 500 nM for the second. The second is the more potent here.

`COc1cccc(F)c1CNC(=O)C1(C)COc2c(oc3cc(C(=O)NC4(C)COC4)ccc23)C(=O)N1[C@H]1C[C@@H](OC)C1` (some centres unmarked) [Example 68] and `COc1ccc(F)cc1CNC(=O)C1(C)COc2c(oc3cc(C(=O)NC4(C)COC4)ccc23)C(=O)N1[C@H]1C[C@@H](OC)C1` (some centres unmarked) [Example 70] fall in the same range of EC50: 51 to 500 nM for the first, 51 to 500 nM for the second.

Compared with `COc1ccc(F)cc1CNC(=O)C1(C)COc2c(oc3cc(C(=O)NC4CCC4)ccc23)C(=O)N1[C@H]1C[C@@H](OC)C1` (some centres unmarked) [Example 73], `COc1cccc(F)c1CNC(=O)C1(C)COc2c(oc3cc(C(=O)NC4CCC4)ccc23)C(=O)N1[C@H]1C[C@@H](OC)C1` (some centres unmarked) [Example 91] is lower in EC50: 51 to 500 nM for the first, ≤ 50 nM for the second. The second is the more potent here.

Compared with `COc1ccc(F)c(F)c1CNC(=O)C1(C)COc2c(oc3cc(C(=O)NC4CCC4)ccc23)C(=O)N1CC1CC1` (centres unmarked) [Example 58], `COc1cccc(F)c1CNC(=O)C1(C)COc2c(oc3cc(C(=O)NC4CCC4)ccc23)C(=O)N1CC1CC1` (centres unmarked) [Example 93] is lower in EC50: 51 to 500 nM for the first, ≤ 50 nM for the second.

First: COc1cccc(Cl)c1CNC(=O)C1(C)COc2c(oc3cc(C(=O)NC4CCC4)ccc23)C(=O)N1CC1CC1 (centres unmarked) [Example 87]
Second: COc1cccc(C#N)c1CNC(=O)C1(C)COc2c(oc3cc(C(=O)NC4CCC4)ccc23)C(=O)N1[C@H]1C[C@@H](OC)C1 (some centres unmarked) [Example 56]
The EC50 of the first is lower: ≤ 50 nM for the first, 51 to 500 nM for the second. The first is the more potent here.

`COc1cccc(F)c1CNC(=O)C1(C)COc2c(oc3ccc(C(F)(F)F)cc23)C(=O)N1CC(=O)N(C)C` (centres unmarked) [Example 131, 4-(2-(dimethylamino)-2-oxoethyl)-N-(2-fluoro-6-methoxybenzyl)-3-methyl-5-oxo-9-(trifluoromethyl)-2,3,4,5-tetrahydrobenzofuro[2,3-f][1,4]oxazepine-3-carboxamide] and `COc1cccc(F)c1CNC(=O)C1(C)COc2c(oc3ccc(C)cc23)C(=O)N1CC(=O)N(C)C` (centres unmarked) [Example 133, 4-(2-(dimethylamino)-2-oxoethyl)-N-(2-fluoro-6-methoxybenzyl)-3,9-dimethyl-5-oxo-2,3,4,5-tetrahydrobenzofuro[2,3-f][1,4]oxazepine-3-carboxamide] fall in the same range of EC50: 51 to 500 nM for the first, 51 to 500 nM for the second.

`[2H]C([2H])([2H])Oc1ccccc1CNC(=O)C1(C)COc2c(oc3ccccc23)C(=O)N1CCOC` (centres unmarked) [Example 36] and `COCCN1C(=O)c2oc3ccccc3c2OCC1(C)C(=O)NCc1c(F)cccc1OC` (centres unmarked) [Example 37] fall in the same range of EC50: 501 to 5000 nM for the first, 501 to 5000 nM for the second.

Compared with `COc1ccccc1CNC(=O)C1(C)COc2c(oc3ccccc23)C(=O)N1C1CC2(CC2)C1` (centres unmarked) [Example 14], `COCCN1C(=O)c2oc3ccccc3c2OCC1(C)C(=O)NCc1c(OC)cccc1OC` (centres unmarked) [Example 33] is higher in EC50: 51 to 500 nM for the first, 501 to 5000 nM for the second.

First: COc1cccnc1CNC(=O)[C@@]1(C)COc2c(oc3ccc(F)cc23)C(=O)N1CC(=O)N1CC(F)C1 [Example 115]
Second: COCCN1C(=O)c2oc3ccccc3c2OCC1(C)C(=O)NCc1cc2ncccc2cc1OC (centres unmarked) [Example 18]
The EC50 of the first is lower: 51 to 500 nM for the first, 501 to 5000 nM for the second. The first is the more potent here.

`COCCN1C(=O)c2oc3ccccc3c2OCC1(C)C(=O)NCc1c(Cl)cc(F)cc1OC` (centres unmarked) [Example 48] and `COCCN1C(=O)c2oc3ccccc3c2OCC1(C)C(=O)NCc1c(OC)cccc1C(N)=O` (centres unmarked) [Example 26] fall in the same range of EC50: 501 to 5000 nM for the first, 501 to 5000 nM for the second.

Same assay, conditions: Homo sapiens, Endothelial cell, Bioactivity of stereoisomers: R isomer; read-out: Bioactivity Bucket, R

`COCCN1C(=O)c2oc3cc(C(=O)NC4CCC4)ccc3c2OC[C@]1(C)C(=O)NCc1ccccc1OC` [Example 50, (R)—N8-cyclobutyl-N3-(2-methoxybenzyl)-4-(2-methoxyethyl)-3-methyl-5-oxo-2,3,4,5-tetrahydrobenzofuro[2,3-f][1,4]oxazepine-3,8-dicarboxamide] was tested, and the EC50 was ≤ 50 nM.

Same assay, conditions: Homo sapiens, Endothelial cell, Bioactivity of stereoisomers: racemate; read-out: Bioactivity Bucket, Racemate

Compound `COc1cccc(F)c1CNC(=O)C1(C)COc2c(oc3ccc(Cl)cc23)C(=O)N1CC(=O)N(C)C` (racemic) [Example 106, 9-chloro-4-(2-(dimethylamino)-2-oxoethyl)-N-(2-fluoro-6-methoxybenzyl)-3-methyl-5-oxo-2,3,4,5-tetrahydrobenzofuro[2,3-f][1,4]oxazepine-3-carboxamide] has an EC50 of 51 to 500 nM.
